From US12396459B2, “Synergistically effective herbicide composition comprising pyridate and at least one defined 4-HPPD inhibitor” (BELCHIM CROP PROTECTION NV, priority 2018, dated 2025)

Assays:
Type in all cases: in vivo
[1] = system: Xanthium spinosum; assay: Field trial post-emergence in maize: XANSP; details: 7-14 DAA; # = 3; g a.c./ha: PYR 300, MES 100, PYR + MES 300 + 90
Protocol: (§1) Herbicidal activity of herbicide compositions according to the first aspect of the present invention with regard to different types of unwanted vegetation was determined during trials performed on test fields (field trials). Individual compositions comprising pyridate and individual compositions comprising a defined 4-HPPD inhibitor are compared with a herbicide composition according to the invention comprising both pyridate and a defined 4-HPPD inhibitor. The expected activity of the combination of the active compounds pyridate and a defined 4-HPPD inhibitor is calculated according to above mentioned calculation method by Colby, in order to evaluate a synergistic effect between pyridate and a defined 4-HPPD inhibitor.
Herbicidal activity was determined by applying herbicide compositions on emerged unwanted vegetation on fields where maize was cultivated. Pyridate and a defined 4-HPPD inhibitor were applied as a tank mixture by mixing these active compounds prior to use in a spray tank. The corresponding mixture was in the form of a spray liquor. […] At a specified number of days after application (DAA), the degree of damage to the unwanted vegetation is rated in % of plants of unwanted vegetation that were killed, which was assessed by visually controlling the plants.

[2] = system: Solanum nigrum; assay: Examples 6-8 herbicidal effect: SOLNI; details: 7 DAA
[3] = system: Convolvulus arvensis; assay: Field trial post-emergence in maize: CONAR
Protocol: as §1
(§2) Herbicidal activity was determined by applying herbicide compositions on emerged unwanted vegetation on fields where maize was cultivated. Pyridate and a defined 4-HPPD inhibitor were applied as a tank mixture by mixing these active compounds prior to use in a spray tank. The corresponding mixture was in the form of a spray liquor. Besides, spray liquors of individual compositions comprising pyridate and of individual compositions comprising a defined 4-HPPD inhibitor were used. Test plants of unwanted vegetation with a growth stage corresponding to BBCH 10-18 (according to the extended BBCH-scale) were sprayed with the active compound preparations such that particular desired amounts of active compounds are applied per unit area. Spray liquor was diluted with water to arrive at an application volume of 50 to 450 L/ha. At a specified number of days after application (DAA), the degree of damage to the unwanted vegetation is rated in % of plants of unwanted vegetation that were killed, which was assessed by visually controlling the plants.
(§3) Example 1 concerns a herbicide composition comprising a combination of pyridate and mesotrione, which was applied post-emergence on unwanted vegetation on a field where maize was cultivated, according to the test conditions mentioned above.

[4] = system: Brassica rapa Canola cultivars; assay: Field trial post-emergence in maize: BRSRC; details: 13-14 DAA; # = 1; g a.c./ha: PYR 450, MES 144, PYR + MES 450 + 144
Protocol: as §1, §2

[5] = system: Fallopia convolvulus; assay: Field trial post-emergence in maize: POLCO
Protocol: as §1, §2

[6] = system: Brassica napus; assay: Field trial post-emergence in maize: BRSNN; details: # = 1, g a.c./ha: PYR 300, MES 100, PYR + MES 300 + 90
Protocol: as §1, §2

[7] = system: Thlaspi arvense; assay: Field trial post-emergence in maize: THLAR; details: # = 1, g a.c./ha: PYR 300, MES 100, PYR + MES 300 + 90
Protocol: as §1, §2

[8] = system: Setaria verticillata; assay: Field trial post-emergence in maize: SETVE
Protocol: as §1, §2, §3

[9] = system: Poa annua; assay: Field trial post-emergence in maize: POAAN; details: for herbicidal effect (h.e.): g a.c./ha: PYR 300, MES 100, PYR + MES 300 + 90
Protocol: as §1, §2

[10] = system: Geranium dissectum; assay: Examples 6-8 herbicidal effect: GERDI; details: 7 DAA
[11] = system: Portulaca oleracea; assay: Field trial post-emergence in maize: POROL; details: # = 1, g a.c./ha: PYR 300, MES 100, PYR + MES 300 + 90
Protocol: as §1, §2

[12] = system: Solanum nigrum; assay: Field trial post-emergence in maize: SOLNI; details: for herbicidal effect (h.e.): g a.c./ha: PYR 300, MES 100, PYR + MES 300 + 90
Protocol: as §1, §2

[13] = system: Setaria verticillata; assay: Examples 6-8 herbicidal effect: SETVE; details: 7 DAA
[14] = system: Viola arvensis; assay: Field trial post-emergence in maize: VIOAR
Protocol: as §1, §2, §3

[15] = system: unwanted vegetation (UVEG); assay: Field trials Examples 1-5 (incl. Table 1), post-emergence on unwanted vegetation in maize; details: 14-20 DAA
Protocol: as §1, §2

[16] = system: Setaria viridis; assay: Field trial post-emergence in maize: SETVI
Protocol: as §1, §2, §3

[17] = system: Cirsium arvense; assay: Field trial post-emergence in maize: CIRAR; details: # = 1, g a.c./ha: PYR 300, MES 100, PYR + MES 300 + 90
Protocol: as §1, §2

[18] = g a.c./ha: MES 50, PYR + SMO 300 + 800
[19] = g a.c./ha: MES 80, PYR + MES 300 + 50

CS(=O)(=O)c1ccc(C(=O)C2C(=O)CCCC2=O)c([N+](=O)[O-])c1 [MES, 2-(4-methylsulfonyl-2-nitrobenzoyl) cyclohexane-1,3-dione]
herbicidal effect (h.e.) [1]: 97% | herbicidal effect (h.e.) [2, 18]: 67% | herbicidal effect (h.e.) [2, 19]: 54% | MES h.e. ([3]; CONAR 14-20 DAA 45 g a.c./ha): 40% | MES h.e. ([3]; CONAR 14-20 DAA 90 g a.c./ha): 68% | MES h.e. ([3]; CONAR 14-20 DAA 135 g a.c./ha): 83% | MES h.e. ([3]; CONAR 24-31 DAA 135 g a.c./ha): 80% | herbicidal effect (h.e.) [4]: 88% | herbicidal effect (h.e.) ([5]; 7-14 DAA, # = 5, g a.c./ha: PYR 300, MES 100, PYR + MES 300 + 90): 68% | herbicidal effect (h.e.) ([5]; 13-14 DAA, # = 1, g a.c./ha: PYR 450, MES 144, PYR + MES 450 + 144): 92% | herbicidal effect (h.e.) ([5]; 18-28 DAA, # = 8, g a.c./ha: PYR 300, MES 100, PYR + MES 300 + 90): 77% | herbicidal effect (h.e.) ([5]; 31-48 DAA, # = 8, g a.c./ha: PYR 300, MES 100, PYR + MES 300 + 90): 68% | MES h.e. ([5]; POLCO 14-20 DAA 45 g a.c./ha): 77% | MES h.e. ([5]; POLCO 14-20 DAA 90 g a.c./ha): 89% | MES h.e. ([5]; POLCO 24-31 DAA 45 g a.c./ha): 80% | MES h.e. ([5]; POLCO 24-31 DAA 135 g a.c./ha): 97% | herbicidal effect (h.e.) ([6]; 7-14 DAA): 86% | herbicidal effect (h.e.) ([6]; 18-28 DAA): 85% | herbicidal effect (h.e.) ([6]; 31-48 DAA): 84% | herbicidal effect (h.e.) ([7]; 7-14 DAA): 76% | herbicidal effect (h.e.) ([7]; 18-28 DAA): 97% | MES h.e. ([8]; SETVE 14-20 DAA 45 g a.c./ha): 21% | MES h.e. ([8]; SETVE 14-20 DAA 90 g a.c./ha): 41% | MES h.e. ([8]; SETVE 14-20 DAA 135 g a.c./ha): 55% | MES h.e. ([8]; SETVE 24-31 DAA 45 g a.c./ha): 31% | MES h.e. ([8]; SETVE 24-31 DAA 90 g a.c./ha): 37% | MES h.e. ([8]; SETVE 24-31 DAA 135 g a.c./ha): 58% | herbicidal effect (h.e.) ([9]; 7-14 DAA, # = 2): 39% | herbicidal effect (h.e.) ([9]; 18-28 DAA, # = 3): 36% | herbicidal effect (h.e.) ([9]; 31-48 DAA, # = 2): 27% | MES h.e. ([9]; POAAN 14-20 DAA 45 g a.c./ha): 24% | MES h.e. ([9]; POAAN 14-20 DAA 90 g a.c./ha): 48% | MES h.e. ([9]; POAAN 14-20 DAA 135 g a.c./ha): 58% | MES h.e. ([9]; POAAN 24-31 DAA 45 g a.c./ha): 17% | MES h.e. ([9]; POAAN 24-31 DAA 90 g a.c./ha): 22% | MES h.e. ([9]; POAAN 24-31 DAA 135 g a.c./ha): 38% | herbicidal effect (h.e.) [10, 18]: 15% | herbicidal effect (h.e.) [10, 19]: 15% | herbicidal effect (h.e.) ([11]; 7-14 DAA): 50% | herbicidal effect (h.e.) ([11]; 18-28 DAA): 5% | herbicidal effect (h.e.) ([12]; 18-28 DAA, # = 7): 91% | herbicidal effect (h.e.) ([12]; 31-48 DAA, # = 6): 93% | MES h.e. ([12]; SOLNI 14-20 DAA 45 g a.c./ha): 95% | herbicidal effect (h.e.) [13, 18]: 0% | herbicidal effect (h.e.) [13, 19]: 3% | MES h.e. ([14]; VIOAR 14-20 DAA 45 g a.c./ha): 84% | MES h.e. ([14]; VIOAR 14-20 DAA 90 g a.c./ha): 95% | MES h.e. ([14]; VIOAR 14-20 DAA 135 g a.c./ha): 98% | MES h.e. (%) ([15]; VIOAR (Viola arvensis), # = 3, first VIOAR block (r259-264), MES 135 g a.c./ha): 98% | MES h.e. (%) ([15]; VIOAR, # = 3, second VIOAR block (r265-272), MES 45 g a.c./ha): 70% | MES h.e. (%) ([15]; VIOAR, # = 3, second VIOAR block (r265-272), MES 90 g a.c./ha): 84% | MES h.e. (%) ([15]; VIOAR, # = 3, second VIOAR block (r265-272), MES 135 g a.c./ha): 87% | MES h.e. ([16]; SETVI 14-20 DAA 45 g a.c./ha): 83% | MES h.e. ([16]; SETVI 14-20 DAA 90 g a.c./ha): 92% | MES h.e. ([16]; SETVI 14-20 DAA 135 g a.c./ha): 95% | MES h.e. ([16]; SETVI 24-31 DAA 45 g a.c./ha): 72% | MES h.e. ([16]; SETVI 24-31 DAA 90 g a.c./ha): 92% | MES h.e. ([16]; SETVI 24-31 DAA 135 g a.c./ha): 95% | herbicidal effect (h.e.) ([17]; 7-14 DAA): 58% | herbicidal effect (h.e.) ([17]; 31-48 DAA): 78%
